Laboratory results taken from patent publication US20210317092A1 (BAYER PHARMA AKTIENGESELLSCHAFT, priority 2016, published 2021).
Read-outs that look alike come from different tables or passages of the source.

Experiments:
[1] = target: T1, human Bradykinin B1 receptor (Homo sapiens, UniProt P46663); experiment: Calcium flux Assay (FLIPR) with recombinant CHO-K1 cells expressing human Bradykinin B1 receptor, in presence (hB1 IC50) or absence (hB1 free IC50) of 0.1% BSA; format: cell-based
T1 construct: host or cells: CHO-K1
T1 sequence (P46663 1-353): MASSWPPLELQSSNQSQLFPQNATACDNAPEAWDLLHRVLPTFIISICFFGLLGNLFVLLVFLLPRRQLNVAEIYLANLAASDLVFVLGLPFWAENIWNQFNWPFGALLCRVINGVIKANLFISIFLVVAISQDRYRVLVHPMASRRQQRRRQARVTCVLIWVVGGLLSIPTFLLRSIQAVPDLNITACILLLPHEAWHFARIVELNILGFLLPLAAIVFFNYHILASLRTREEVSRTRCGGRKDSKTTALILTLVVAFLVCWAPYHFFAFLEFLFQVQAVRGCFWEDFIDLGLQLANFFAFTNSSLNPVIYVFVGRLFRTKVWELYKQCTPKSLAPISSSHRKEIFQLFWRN

[2] = system: CFA-induced mechanical hyperalgesia; experiment: Rat CFA in vivo model (mechanical hyperalgesia, paw withdrawal threshold); conditions: dosed 1 h before CFA and 24 h later, mean ± S.D.
Experimental: Male Sprague Dawley rats were used. Mechanical hyperalgesia was induced by injecting 25 μL of Complete Freund's Adjuvant (CFA) into the plantar surface of one hind paw. Mechanical hyperalgesia was measured using the Pressure Application Measurement apparatus (Ugo Basile, Gemonio, Italy). Briefly, a linearly increasing pressure was applied to an area of ˜ 50 mm2 of the plantar side of the hind paw until a behavioural response (paw withdrawal) was observed or until the pressure reached 1000 gf. The pressure at which the behavioural response occurred was recorded as the “Paw Withdrawal Threshold” (PWT). Both CFA-injected and contralateral PWTs were determined for each rat, in each treatment group and for the vehicle group at each time point of the studies. Each compound example was administered orally in the vehicle solution of dimethylsulfoxide (DMSO), Polyethylenglycol (PEG) and 2-Hydroxypropyl-beta-cyclodextrin (HPCD) (v/v/v=3:20:77). Rats received a first dose as specified in Table 3 in a solution of 5 mL/kg bodyweight application volume 1 hour before CFA injection and a second dose 24 hours later. Mechanical hyperalgesia testing was performed approximately 2 hours before CFA injection, then 2 and 4 hours after the second dose of compound example (i.e. 26 and 28 hours after CFA treatment). Animals in the vehicle group were treated in the identical way like the other groups but without compound in the orally applied solution. Data were expressed as the mean±S.D. Area Under the Curve (AUC) of PWTs (defined in table 3 as “AUC of Paw withdrawal threshold (AUC 0-4 hours) post-vehicle” with respect to vehicle group or “AUC of Paw withdrawal threshold (AUC 0-4 hours) post-drug” with respect to the compound example). Data were analysed by performing a one-way ANOVA followed by a Dunnett's post hoc test. For p values less than 0.05 the results were deemed to be statistically significant.

[3] = system: IL-1B and des-Arg9-bradykinin (DABK) induced paw oedema; experiment: Rat paw oedema in vivo model; conditions: p.o., p < 0.05 versus vehicle (6.45 ± 1.14)
Experimental: Rat Paw Oedema In Vivo Model
Male Sprague Dawley rats, approximately 250 g body weight, were used. The compound examples were administered orally in the vehicle as described in “Rat CFA in vivo model”, supra. Rats were treated orally (p.o.) with a solution of 5 mL/kg bodyweight of the vehicle only or 5 mL/kg bodyweight of a solution containing the vehicle plus the compound in a dose as indicated in Table 4. Rats received an intraplantar injection of IL-1B (5 μg in 20 μL) and des-Arg9-bradykinin (DABK; 10 μg in 20 μL) at 20 and 40 minutes after compound treatment, respectively. Paw oedema was measured by water displacement using a plethysmometer (Ugo Basile, Gemonio, Italy). Paw oedema measurement was performed before compound administration (baseline) and subsequently at 20, 40 and 60 minutes after DABK injection. Paw oedema was calculated by subtracting the baseline value to post-DABK treatment values for each individual and at each time point. Data were analysed by calculating the area under the paw oedema time curve for each individual (0-60 minutes post-DABK). The effect of the compound example, relative to that of the vehicle, was analysed by performing a one-way ANOVA followed by a Dunnett's post-hoc test. […] The mean and standard deviation were calculated for each treatment group for graphical representations.

[4] = in absence of 0.1% BSA, read-out: hB1 free IC50
[5] = in presence of 0.1% BSA, read-out: hB1 IC50

| IC50 [1, 4] [nM] | IC50 [1, 5] [nM] | SMILES | AUC of Paw withdrawal threshold (AUC 0-4 hours) post-drug ([2]; 3 mg/kg p.o., p < 0.05 vs vehicle (1083 ± 93 gf)) | AUC of Paw withdrawal threshold (AUC 0-4 hours) post-drug ([2]; 10 mg/kg p.o., p < 0.01 vs vehicle (1083 ± 93 gf)) | AUC of Paw withdrawal threshold (AUC 0-4 hours) post-drug ([2]; 30 mg/kg p.o., p < 0.0001 vs vehicle (1083 ± 93 gf)) | AUC of Paw Oedema (AUC 0-1 hour post DABK) ([3]; 10 mg/kg) | AUC of Paw Oedema (AUC 0-1 hour post DABK) ([3]; 30 mg/kg) |
| --- | --- | --- | --- | --- | --- | --- | --- |
| 3.35 | 22.6 | COc1ccc(-c2ccc(NC(=O)C3(c4cccc(Cl)c4)CC3)cc2-c2nnn[nH]2)cc1OC [Example 1, 1-(3-Chlorophenyl)-N-[3′,4′-dimethoxy-2-(1H-tetrazol-5-yl)biphenyl-4-yl]cyclopropanecarboxamide] | – | – | – | – | – |
| 16.1 | 33.5 | CCOc1ccc(-c2ccc(NC(=O)C3(c4cccc(Cl)c4)CC3)cc2-c2nnn[nH]2)cn1 [Example 253, 1-(3-Chlorophenyl)-N-[4-(6-ethoxypyridin-3-yl)-3-(1H-tetrazol-5-yl)phenyl]cyclopropanecarboxamide] | 1415 ± 274 gf (*) | 1439 ± 310 gf (**) | 1649 ± 301 gf (***) | 3.24 ± 2.73 (*) | 3.67 ± 2.35 (*) |
